Laboratory results: US5358947A, “Angiotensin II receptor blocking 2,3-substituted pyrazolo[1,5-a]-1,3,5-triazin-4(3H)-ones” (American Cyanamid Company, priority 1993, dated 1994)
Several values for one entry are separate records, joined by “and”; a condition that tells them apart may be missing. Equal values may be shown once.

System: ANGIOTENSIN II (AII) VASOPRESSOR RESPONSE
Experiment: AII Challenge: angiotensin II (AII) vasopressor response in conscious rats
Format: in vivo
Design: Response After AII / Change / Average Change: unit not given here
Conditions: for Control Before AII / Change / Response After AII: individual rat; for Control Before AII: in mmHg (unit assumed); for % Inhibition / Average Change: n = 2
Method in brief: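 Conscious male Okamoto-Aoki SHR (16-20 weeks, ~330 g), aorta/vena cava cannulated, challenged with AII 0.05 and 0.1 ug/kg i.v. before and at 30-300 min after compound dosed i.v., i.p. or orally. Systolic pressure rise expressed relative to each rat's predose response (100%).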

[1] = 3 mg/kg i.v., AII 0.05 mcg/kg, 30 min post dose
[2] = 3 mg/kg i.v., AII 0.05 mcg/kg, 30 min post dose, listed as Ex. 17
[3] = 3 mg/kg i.v., AII 0.1 mcg/kg, 30 min post dose
[4] = 3 mg/kg i.v., AII 0.1 mcg/kg, 30 min post dose, listed as Ex. 17
[5] = 10 mg/kg i.v., AII 0.05 mcg/kg, 60 min post dose, listed as Ex. 17
[6] = 10 mg/kg i.v., AII 0.05 mcg/kg, 90 min post dose, listed as Ex. 17
[7] = 10 mg/kg i.v., AII 0.05 mcg/kg, 120 min post dose, listed as Ex. 17
[8] = 10 mg/kg i.v., AII 0.05 mcg/kg, 180 min post dose, listed as Ex. 17
[9] = 10 mg/kg i.v., AII 0.05 mcg/kg, 240 min post dose, listed as Ex. 17
[10] = 10 mg/kg i.v., AII 0.05 mcg/kg, 300 min post dose, listed as Ex. 17
[11] = 10 mg/kg i.v., AII 0.1 mcg/kg, 60 min post dose, listed as Ex. 17
[12] = 10 mg/kg i.v., AII 0.1 mcg/kg, 90 min post dose, listed as Ex. 17
[13] = 10 mg/kg i.v., AII 0.1 mcg/kg, 120 min post dose, listed as Ex. 17
[14] = 10 mg/kg i.v., AII 0.1 mcg/kg, 180 min post dose, listed as Ex. 17
[15] = 10 mg/kg i.v., AII 0.1 mcg/kg, 240 min post dose, listed as Ex. 17
[16] = 10 mg/kg i.v., AII 0.1 mcg/kg, 300 min post dose, listed as Ex. 17

## CCCCc1nc2ccnn2c(=O)n1Cc1ccc(-c2ccccc2-c2nn[nH]n2)cc1 [Example 17, 2-Butyl-3-[[2'-(1H-tetrazol-5-yl)[1,1'-biphenyl]-4-yl]methyl]pyrazolo[1,5-a]-1,3,5-triazin-4(3H) -one]
[1]
  Control Before AII: 252
  % Inhibition: 34%
  Average Change: 31.5
[2]
  Change: 33 and 30
  Response After AII: 285 and 265
  Control Before AII: 235
[3]
  Control Before AII: 255
  % Inhibition: 37%
  Average Change: 30
[4]
  Change: 25 and 35
  Response After AII: 280 and 260
  Control Before AII: 225
[5]
  Change: 5 and 10
  Response After AII: 255 and 245
  Control Before AII: 250 and 235
  % Inhibition: 84%
  Average Change: 7.5
[6]
  Change: 25
  Response After AII: 275 and 255
  Control Before AII: 250 and 230
  % Inhibition: 47%
  Average Change: 25
[7]
  Change: 25 and 30
  Response After AII: 270 and 255
  Control Before AII: 245 and 225
  % Inhibition: 42%
  Average Change: 27.5
[8]
  Change: 20 and 30
  Response After AII: 260 and 240
  Control Before AII: 240 and 210
  % Inhibition: 47%
  Average Change: 25
[9]
  Change: 25 and 15
  Response After AII: 270 and 250
  Control Before AII: 245 and 235
  % Inhibition: 58%
  Average Change: 20
[10]
  Change: 40 and 30
  Response After AII: 290 and 245
  Control Before AII: 250 and 215
  % Inhibition: 26%
  Average Change: 35
10 mg/kg i.v., AII 0.1 mcg/kg, 60 min post dose
  Control Before AII: 255
[11]
  Change: 5 and 10
  Response After AII: 260 and 235
  Control Before AII: 225
  % Inhibition: 84%
  Average Change: 7.5
[12]
  Change: 15 and 35
  Response After AII: 265 and 260
  Control Before AII: 250 and 225
  % Inhibition: 47%
  Average Change: 25
[13]
  Change: 25 and 30
  Response After AII: 275 and 260
  Control Before AII: 250 and 230
  % Inhibition: 42%
  Average Change: 27.5
10 mg/kg i.v., AII 0.1 mcg/kg, 180 min post dose
  Control Before AII: 240
[14]
  Change: 30 and 40
  Response After AII: 270 and 265
  Control Before AII: 225
  % Inhibition: 26%
  Average Change: 35
[15]
  Change: 35 and 30
  Response After AII: 290 and 270
  Control Before AII: 255 and 240
  % Inhibition: 32%
  Average Change: 32.5
[16]
  Change: 35 and 25
  Response After AII: 285 and 260
  Control Before AII: 250 and 235
  % Inhibition: 37%
  Average Change: 30
